Measured values from patent publication US20220280661A1, “GLUCOCORTICOID RECEPTOR RADIOLIGANDS AND METHODS FOR THEIR PREPARATION AND USE” (The Regents of the University of California, priority 2019, published 2022).

Biological target: T1, GR (Mus musculus, UniProt P06537)
T1 construct: from tissue; host or cells: tissues of C57BL6/J mice (intact or adrenalectomized), in vivo
T1 sequence (P06537 1-792): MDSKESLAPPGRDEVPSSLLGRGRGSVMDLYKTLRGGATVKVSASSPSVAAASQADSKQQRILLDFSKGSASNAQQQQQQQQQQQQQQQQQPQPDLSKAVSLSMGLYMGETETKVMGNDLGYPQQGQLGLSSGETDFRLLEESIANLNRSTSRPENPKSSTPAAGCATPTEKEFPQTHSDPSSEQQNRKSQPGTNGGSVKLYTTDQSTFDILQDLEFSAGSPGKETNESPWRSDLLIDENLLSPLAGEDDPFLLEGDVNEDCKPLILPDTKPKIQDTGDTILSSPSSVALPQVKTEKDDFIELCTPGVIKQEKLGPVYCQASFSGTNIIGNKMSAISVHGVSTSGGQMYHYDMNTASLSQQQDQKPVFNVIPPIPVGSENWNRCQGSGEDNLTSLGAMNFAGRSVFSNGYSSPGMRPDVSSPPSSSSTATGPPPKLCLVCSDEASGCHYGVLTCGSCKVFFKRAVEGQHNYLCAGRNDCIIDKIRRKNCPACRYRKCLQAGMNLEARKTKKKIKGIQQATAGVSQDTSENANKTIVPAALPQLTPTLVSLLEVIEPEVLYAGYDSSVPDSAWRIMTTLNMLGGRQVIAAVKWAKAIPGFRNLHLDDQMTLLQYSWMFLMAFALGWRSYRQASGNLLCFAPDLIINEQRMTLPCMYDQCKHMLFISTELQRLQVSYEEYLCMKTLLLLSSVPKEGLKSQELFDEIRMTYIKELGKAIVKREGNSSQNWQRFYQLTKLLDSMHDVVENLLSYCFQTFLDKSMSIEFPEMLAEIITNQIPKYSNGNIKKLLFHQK
Assay: Radiotracer biodistribution in intact or adrenalectomized mice
Type: in vivo
Conditions: 20 min post injection
Protocol: All animal experiments were conducted under the approval from Institutional Animal Care and Use Committee (IACUC) at UCSF. Male nu nu or C57BL6/J mice (4-6 weeks) purchased from Charles River. All the mice were well-housed in the USCF with free access to food and water. […] The mice were treated once daily for three days. At day 3, the mice received the radiotracer after the final gavage. Adrenalectomized mice were purchased from Charles River, and provided drinking water supplemented with NaCl (aq) per instructions.
For a broader survey of radiotracer biodistribution post mortem, mice were euthanized after radiotracer injection with CO2(g) asphyxiation and dissected at dedicated time points post injection. The blood and tissues were removed, washed, dried and weighed. The activity of each tissue was measured with a gamma counter. All data was decay corrected. PRISM software was used to express a percentage (% ID/g) of the injected dose per gram of tissue. […] Table 2 provides a tabular representation of the biodistribution data collected 30, 60, 90 minutes after injection of [18F]-YJH08 in C57B16/J mice. The data are represented as mean standard deviation of the % ID/g.
To understand if corticosteroid depletion elevated radiotracer uptake in tissues, the biodistribution of [18F]-YJH08 was compared in intact and adrenalectomized (adx) mice. The radiotracer uptake was uniformly higher in the tissues of adx mice compared to intact mice (FIG. 4C and Table 4). Overall, the extent of GR specific binding in tissues observed with [18F]-YJH08 is remarkable considering the previously reported biodistribution data for radiotracers targeting GR, including non-steroidal agonists. See, Wuest, et al. Bioorganic & medicinal chemistry letters 2007, 17 (14), 4035-9.
The P value indicates the result of an unpaired, two-tailed Student's t test between the two arms (n=4/group).
Animal Studies. All animal experiments were performed under the approval of the Institutional Animal Care and Use Committee (IACUC) at UCSF. C57BL6/J mice (4-6 weeks) were purchased from Charles River. All the mice were housed in a dedicated vivarium with free access to food and water. […] Adrenalectomized mice were purchased from Charles River and provided drinking water supplemented with NaCl (aq) per instructions until the time of the tracer biodistribution study.
Biodistribution Studies. Mice were euthanized after radiotracer (7.4-18.5 MBq in 100-150 μL) injection with CO2 (g) asphyxiation and dissected at dedicated time points post injection. The blood and tissues were collected, washed, dried, and weighed. The activity of each tissue was measured with a gamma counter. All data was decay corrected. PRISM software was used to express a percentage (% ID/g) of the injected dose per gram of tissue.
The data were collected in intact male C57B16/J mice at 20 min post injection.
Significant reductions in (±)-^11C-YJH08 tissue uptake were observed by treating mice with Dex-CD at 10 mg/kg via intraperitoneal injection 1 hour before the radiotracer injection (FIG. 7A). […] Specific binding in vivo was further studied by investigating relative tissue uptake in intact versus adrenalectomized mice (adrenalectomy depletes serum corticosteroids and elevates GR expression in tissues). […] Table 8 summarizes the biodistribution data collected 20 minutes after injection of (±)-^11C-YJH08 in intact or adrenalectomized (ADREX) mice. The P value indicates the result of an unpaired, two-tailed Student's t test between the two arms (n=4/group).

[1] = intact C57B16/J mice, listed as (±)-^18F-YJH08

Structure (SMILES) | radiotracer uptake, Blood (adrenalectomized mice) | radiotracer uptake, Bone (adrenalectomized mice) | radiotracer uptake, Brain (adrenalectomized mice) | radiotracer uptake, Heart (adrenalectomized mice) | radiotracer uptake, Kidney (adrenalectomized mice) | radiotracer uptake, Liver (adrenalectomized mice) | radiotracer uptake, Muscle (adrenalectomized mice) | radiotracer uptake, Spleen (adrenalectomized mice) | radiotracer uptake, Supraspinal BAT (adrenalectomized mice) | radiotracer uptake, Adrenal Gland (intact C57B16/J mice) | radiotracer uptake, Blood (intact C57B16/J mice) | radiotracer uptake, Bone (intact C57B16/J mice) | radiotracer uptake, Brain (intact C57B16/J mice) | radiotracer uptake, Heart (intact C57B16/J mice) | radiotracer uptake, Kidney (intact C57B16/J mice) | radiotracer uptake, Liver (intact C57B16/J mice) | radiotracer uptake, Muscle (intact C57B16/J mice) | radiotracer uptake, Spleen (intact C57B16/J mice) | radiotracer uptake, Supraspinal BAT (brown fat depot) (intact C57B16/J mice) | also measured
COc1cccc2c1-c1ccc3c(c1C(Cc1ccc([18F])cc1)O2)C(C)=CC(C)(C)N3 (racemic) [[18F]-YJH08, [^18F]-5-(4-fluorobenzyl)-10-methoxy-2,2,4-trimethyl-2,5-dihydro-1H-chromeno[3,4-f]quinoline] | 2.67 ± 0.1 % ID/g | 1.45 ± 0.2 % ID/g | 2.42 ± 0.1 % ID/g | 4.75 ± 1.0 % ID/g | 6.91 ± 0.3 % ID/g | 13.28 ± 1.43 % ID/g | 2.03 ± 0.2 % ID/g | 3.25 ± 0.05 % ID/g | 15.56 ± 3.8 % ID/g | 10.82 ± 5.9 % ID/g | 2.01 ± 0.4 % ID/g | 1.39 ± 02 % ID/g | 1.96 ± 0.09 % ID/g | 3.92 ± 0.5 % ID/g | 5.79 ± 1.0 % ID/g | 10.68 ± 1.1 % ID/g | 1.53 ± 0.1 % ID/g | 2.67 ± −0.5 % ID/g | 9.01 ± 2.0 % ID/g | radiotracer uptake, Large intestine (adrenalectomized mice): 1.34 ± 0.7 % ID/g; radiotracer uptake, Lung (adrenalectomized mice): 4.35 ± 1.1 % ID/g; radiotracer uptake, Pancreas (adrenalectomized mice): 5.25 ± 0.4 % ID/g; radiotracer uptake, Small intestine (adrenalectomized mice): 27.83 ± 2.89 % ID/g; radiotracer uptake, Stomach (adrenalectomized mice): 3.23 ± 3.57 % ID/g; radiotracer uptake, Lung (intact C57B16/J mice): 3.89 ± 0.7 % ID/g; radiotracer uptake, Pancreas (intact C57B16/J mice): 4.40 ± 0.2 % ID/g; radiotracer uptake, Small intestine (intact C57B16/J mice): 21.22 ± 4.1 % ID/g; radiotracer uptake, Stomach (intact C57B16/J mice): 3.38 ± 2.8 % ID/g; radiotracer uptake, Adrenal Gland [1]: 12.19 ± 6.46 % ID/g; radiotracer uptake, Blood [1]: 2.22 ± 0.14 % ID/g; radiotracer uptake, Bone [1]: 1.3 ± 0.23 % ID/g; radiotracer uptake, Brain [1]: 1.93 ± 0.07 % ID/g; radiotracer uptake, Heart [1]: 4.15 ± 0.31 % ID/g; radiotracer uptake, Kidney [1]: 5.79 ± 1.07 % ID/g; radiotracer uptake, Liver [1]: 11.08 ± 0.92 % ID/g; radiotracer uptake, Muscle [1]: 1.53 ± 0.12 % ID/g; radiotracer uptake, Spleen [1]: 2.46 ± 0.53 % ID/g; radiotracer uptake, Supraspinal BAT (brown fat depot) [1]: 9.01 ± 2.07 % ID/g
CC1=CC(C)(C)Nc2ccc3c(c21)C(Cc1ccc(F)cc1)Oc1cccc(O[11CH3])c1-3 (racemic) [(±)-^11C-YJH08] | 2.79 ± 0.54 % ID/g | 2.03 ± 0.4 % ID/g | 2.28 ± 0.46 % ID/g | 5.63 ± 0.94 % ID/g | 6.88 ± 1.52 % ID/g | 15.21 ± 3.39 % ID/g | 2.32 ± 0.5 % ID/g | 2.88 ± 0.68 % ID/g | 12.01 ± 3.54 % ID/g | 13.88 ± 7.15 % ID/g | 2.25 ± 0.21 % ID/g | 1.19 ± 0.13 % ID/g | 1.81 ± 0.17 % ID/g | 4.47 ± 0.43 % ID/g | 5.82 ± 0.28 % ID/g | 12.19 ± 1.22 % ID/g | 1.53 ± 0.13 % ID/g | 2.22 ± 0.33 % ID/g | 9.8 ± 2.83 % ID/g | –
